Active and inactive are the calls of the source. The calls are words filed in the database; no cut-off is given here.
What was measured:
4T1 [1] = assay: Phototoxicity against mouse 4T1 cells in presence of illumination by MTT assay; type: functional, cell-based; conditions: 4T1, light or radiation study
4T1 [2] = assay: Phototoxicity against mouse 4T1 cells in presence of illumination by MTT assay relative to control; type: functional
[3] = Drug uptake in human L02 cells by flow cytometric analysis; type: ADME, cell-based
Albumin = Albumin (Homo sapiens, UniProt P02768); assay: Binding affinity to human serum albumin assessed as dissociation constant by fluorescence emission spectrophotometric analysis; type: ADME, cell-free
[4] = Drug uptake in human MDA-MB-231 cells by flow cytometric analysis; type: ADME, cell-based
4T1 [5] = assay: Cytotoxicity against mouse 4T1 cells by MTT assay; type: functional, cell-based
[6] = Drug localization in mitochondria of human MDA-MB-231 cells at 0.5 uM by DAPI staining based confocal laser scanning microscopic method; type: ADME; conditions: mda-mb-231, 0.5 µM
MDA-MB-231 [7] = assay: Cytotoxicity against human MDA-MB-231 cells assessed as reduction in cell viability at 5 uM by calcein-AM/PI staining based fluorescence analysis; type: functional
MDA-MB-231 [8] = assay: Induction of apoptosis in human MDA-MB-231 cells assessed as necrotic cells at […] by flow cytometric analysis; type: functional; conditions: dose 2.5 µM
[9] = Binding affinity to 1-20% fetal bovine serum protein in PBS assessed as increase in fluorescence emission by fluorescence spectrophotometric analysis; type: ADME, cell-free, Bos taurus; conditions: cattle
[10] = Toxicity in ICR mouse assessed as effect on kidney morphology at 100 uM, iv measured after 24 hrs by H and E staining based light microscopic analysis; type: organism-based; conditions: in vivo
[11] = Drug uptake in tumor of BALB/c mouse xenografted with mouse 4T1 cells at 100 uM, iv measured after 120 hrs by fluorescence molecular tomography; type: ADME, organism-based, Neoplasm; conditions: in vivo
MDA-MB-231 [12] = assay: Phototoxicity against human MDA-MB-231 cells assessed as reduction in cell viability at 0.5 uM in presence of illumination by calcein-AM/PI staining based fluorescence analysis; type: functional
MDA-MB-231 [13] = assay: Induction of apoptosis in human MDA-MB-231 cells assessed as necrotic cells at […] in presence of illumination by flow cytometric analysis; type: functional; conditions: dose 0.25 µM
Erythrocyte [14] = assay: Induction of hemolysis in RBC (unknown origin) in absence of serum; type: cell-based
4T1 [15] = assay: Antitumor activity against mouse 4T1 cells xenografted in BALB/c mouse assessed as reduction in tumor weight at 2.4 mg/kg, iv dosed every 3 days for 23 days and measured on day 23; type: functional; conditions: 4T1, iv, 552 h, time 23 day
MDA-MB-231 [16] = assay: Induction of apoptosis in human MDA-MB-231 cells assessed as early apoptotic cells at […] in presence of illumination by flow cytometric analysis; type: functional; conditions: dose 0.25 µM
4T1 [17] = assay: Anti-metastatic activity against mouse 4T1 cells xenografted in BALB/c mouse assessed as metastasized area in lungs at 2.4 mg/kg, iv dosed every 3 days for 23 days and illuminated with 670 nm laser light 30 mins after the first dose and measured on day 30 by hematoxylin and eosin staining based analysis (reference value: 44.8%); type: functional; conditions: time 30 day
4T1 [18] = assay: Antitumor activity against mouse 4T1 cells xenografted in BALB/c mouse assessed as reduction in tumor weight at 2.4 mg/kg, iv dosed every 3 days for 23 days and illuminated with 670 nm laser light 30 mins after the first dose and measured on day 23; type: functional; conditions: 4T1, iv, 552 h, time 23 day
[19] = Drug localization in nucleus of human MDA-MB-231 cells at 0.5 uM by DAPI staining based confocal laser scanning microscopic method; type: ADME, subcellular; conditions: mda-mb-231, 0.5 µM
[20] = Hepatotoxicity in ICR mouse assessed as hepatocytes with intact nuclei and cytoplasm at 100 uM, iv measured after 24 hrs by H and E staining based light microscopic analysis; type: toxicity, organism-based
4T1 [21] = assay: Anti-metastatic activity against mouse 4T1 cells xenografted in BALB/c mouse assessed as metastasized area in lungs at 2.4 mg/kg, iv dosed every 3 days for 23 days and measured on day 30 by hematoxylin and eosin staining based analysis (reference value: 44.8%); type: functional; conditions: time 30 day
Erythrocyte [22] = assay: Induction of hemolysis in RBC (unknown origin) in presence of 10% FBS; type: cell-based
4T1 [23] = assay: Antitumor activity against mouse 4T1 cells xenografted in BALB/c mouse assessed as inhibition of tumor growth at 2.4 mg/kg, iv dosed every 3 days for 23 days; type: functional, organism-based; conditions: time 23.0 day
[24] = Toxicity in ICR mouse assessed as effect on lungs morphology at 100 uM, iv measured after 24 hrs by H and E staining based light microscopic analysis; type: organism-based; conditions: in vivo
[25] = Time-dependent drug uptake in mouse 4T1 cells measured for 24 hrs by flow cytometric analysis; type: ADME, cell-based; conditions: 4t1, 24 h, TDE = time-dependent effect
MDA-MB-231 [26] = assay: Cytotoxicity against human MDA-MB-231 cells assessed as reduction in cell viability at 0.5 uM by calcein-AM/PI staining based fluorescence analysis; type: functional
[27] = Toxicity in ICR mouse assessed as effect on heart morphology at 100 uM, iv measured after 24 hrs by H and E staining based light microscopic analysis; type: organism-based; conditions: in vivo
[28] = Binding affinity to 1-20% fetal bovine serum protein in PBS assessed as shift in Q-band by UV/Vis spectrophotometric analysis; type: ADME, cell-free, Bos taurus; conditions: cattle
MDA-MB-231 [29] = assay: Induction of apoptosis in human MDA-MB-231 cells assessed as early apoptotic cells at […] by flow cytometric analysis; type: functional; conditions: dose 2.5 µM
[30] = Drug localization in lysosomes of human MDA-MB-231 cells at 0.5 uM by DAPI staining based confocal laser scanning microscopic method; type: ADME, subcellular, Lysosome; conditions: mda-mb-231, 0.5 µM
[31] = Toxicity in ICR mouse assessed as effect on spleen morphology at 100 uM, iv measured after 24 hrs by H and E staining based light microscopic analysis; type: organism-based; conditions: in vivo
[32] = Hepatotoxicity in ICR mouse assessed as hepatocytes with extensive shrinking cytoplasm, destroyed intercellular connections, necrotic cells with smeared nuclei at 100 uM, iv measured after 24 hrs by H and E staining based light microscopic analysis; type: toxicity, organism-based
CWR22R = assay: Cytotoxicity against human 22RV1 cells; type: functional, cell-based

Albumin, sequence (P02768 whole entry): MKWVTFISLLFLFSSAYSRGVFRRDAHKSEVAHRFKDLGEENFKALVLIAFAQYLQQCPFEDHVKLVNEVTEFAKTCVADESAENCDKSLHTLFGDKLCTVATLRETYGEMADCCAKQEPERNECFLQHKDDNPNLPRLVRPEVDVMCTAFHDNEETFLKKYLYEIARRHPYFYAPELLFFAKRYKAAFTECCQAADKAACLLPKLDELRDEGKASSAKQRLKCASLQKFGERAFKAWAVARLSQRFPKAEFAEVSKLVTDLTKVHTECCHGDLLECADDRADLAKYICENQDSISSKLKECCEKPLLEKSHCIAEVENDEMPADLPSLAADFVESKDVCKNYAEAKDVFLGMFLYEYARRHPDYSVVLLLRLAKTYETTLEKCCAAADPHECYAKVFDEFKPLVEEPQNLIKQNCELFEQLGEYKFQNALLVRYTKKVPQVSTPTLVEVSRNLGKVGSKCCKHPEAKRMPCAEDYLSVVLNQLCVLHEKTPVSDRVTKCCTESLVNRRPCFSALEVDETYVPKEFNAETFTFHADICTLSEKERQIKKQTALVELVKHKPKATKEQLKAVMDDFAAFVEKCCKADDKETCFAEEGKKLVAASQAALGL

Row | Drug uptake [3] | Kd (Albumin) [µM] | Drug uptake [4] | Compound | IC50 (4T1 [1]) [µM] | Activity (4T1 [2]) [%] | Activity [10] | Activity (Erythrocyte [14]) | inhibition in vivo at 2.4 mg/kg (4T1 [15]) [%] | Activity (4T1 [21]) [%] | Activity (Erythrocyte [22]) | Activity (4T1 [23]) | Activity [24] | Activity [27] | Activity [31] | other results
1 | Active | 0.0893 | Active | C=Cc1c(C)c2cc3nc(c4c5[nH]c(cc6nc(cc1[nH]2)C(C)=C6CC)c(C)c5C(=O)C4)[C@@H](CCC(=O)O)[C@@H]3C [PYROPHEOPHORBIDE A] | 0.13 | 90 |  |  |  |  |  |  |  |  |  | 
2 | Not Active | 0.363 | Active | C=Cc1c(C)c2cc3nc(c4c5[nH]c(cc6nc(cc1[nH]2)C(C)=C6CC)c(C)c5C(=O)C4)[C@@H](CCC(=O)NCC(=O)NCC(=O)N[C@@H](CC(C)C)C(=O)N[C@@H](CCCCN)C(=O)N[C@H](CC(C)C)C(=O)N[C@@H](CC(C)C)C(=O)N[C@@H](CCCCN)C(=O)N[C@H](CCCCN)C(=O)N[C@@H](CC(C)C)C(=O)N[C@H](CC(C)C)C(=O)N[C@H](CCCCN)C(=O)N[C@@H](CCCCN)C(=O)N[C@@H](CC(C)C)C(=O)N[C@@H](CC(C)C)C(=O)N[C@H](CCCCN)C(=O)N[C@@H](CC(C)C)C(=O)N[C@@H](CC(C)C)C(N)=O)[C@@H]3C | 0.38 | 100 | Non-Toxic | Toxic | 90.1 | 4.7 | Non-Toxic | Active | Non-Toxic | Non-Toxic | Non-Toxic | Activity (4T1 [5]): Dose-Dependent Effect; IC50 (4T1 [5]): 1.69 µM; Drug uptake [6]: Active; Activity (MDA-MB-231 [7]): Active; Activity (MDA-MB-231 [8]): 37.52%; Activity [9]: Active; Drug uptake [11]: Active; Activity (MDA-MB-231 [12]): Active; Activity (MDA-MB-231 [13]): 29%; Activity (MDA-MB-231 [16]): 10.1%; Activity (4T1 [17]): 1.5%; inhibition in vivo at 2.4 mg/kg (4T1 [18]): 98.4%; Drug uptake [19]: Not Active; Activity [20]: Non-Toxic; Drug uptake [25]: Tde; Activity (MDA-MB-231 [26]): inactive; Activity [28]: Active; Activity (MDA-MB-231 [29]): 7.48%; Drug uptake [30]: Active
3 |  |  |  | CCN(CC)c1ccc2c(-c3ccccc3C(=O)NCC(=O)NCC(=O)N[C@@H](CC(C)C)C(=O)N[C@@H](CCCCN)C(=O)N[C@H](CC(C)C)C(=O)N[C@@H](CC(C)C)C(=O)N[C@@H](CCCCN)C(=O)N[C@H](CCCCN)C(=O)N[C@@H](CC(C)C)C(=O)N[C@H](CC(C)C)C(=O)N[C@H](CCCCN)C(=O)N[C@@H](CCCCN)C(=O)N[C@@H](CC(C)C)C(=O)N[C@@H](CC(C)C)C(=O)N[C@H](CCCCN)C(=O)N[C@@H](CC(C)C)C(=O)N[C@@H](CC(C)C)C(N)=O)c3ccc(=[N+](CC)CC)cc-3oc2c1 |  |  | Non-Toxic | Toxic | 47.3 | 14.5 | Non-Toxic | Active | Non-Toxic | Non-Toxic | Non-Toxic | Activity [32]: Toxic
4 |  |  |  | CC(C)C[C@H](NC(=O)[C@H](CC(C)C)NC(=O)[C@@H](CCCCN)NC(=O)[C@H](CC(C)C)NC(=O)[C@H](CC(C)C)NC(=O)[C@H](CCCCN)NC(=O)[C@@H](CCCCN)NC(=O)[C@@H](CC(C)C)NC(=O)[C@H](CC(C)C)NC(=O)[C@@H](CCCCN)NC(=O)[C@H](CCCCN)NC(=O)[C@H](CC(C)C)NC(=O)[C@@H](CC(C)C)NC(=O)[C@H](CCCCN)NC(=O)[C@H](CC(C)C)NC(=O)CNC(=O)CN)C(N)=O |  |  |  |  |  |  |  |  |  |  |  | IC50 (CWR22R): 6 µM

— ChEMBL document CHEMBL4814008, “Using porphyrins as albumin-binding molecules to enhance antitumor efficacies and reduce systemic toxicities of antimicrobial peptides” (Eur J Med Chem, 2021)
